Tests used:
[1] = test system: ST2 cells; test: Osteoblast differentiation test (alkaline phosphatase activity); type: cell-based; conditions: Mus musculus, ST-2, 96 h; at 0.03 μg/mL; culturing for four days; control group (0.1% DMSO) = 100%; read-out: alkaline phosphatase activity increase rate
Experimental: ST2 cells (available from Institute of Physical and Chemical Research) which are stroma cells derived from mouse marrow were used. In this test, α-MEM medium (available from GIBCO BRL Cat. No. 10370-021) with which 10% (v/v) inactivated fetal bovine serum (available from Hyclone Company, FBS) and 1% (v/v) Penicillin-Streptomycin, Liquid (available from GIBCO BRL Cat. No. 15140-122) are mixed (hereinbelow abbreviated as 10% -FBS-αMEM) was used. Every culture in this test was conducted in a CO2 incubator (37° C., 95% humidity, 5% CO2).
The cells mentioned above were harvested with 2 mL of 0.25% trypsin solution (available from GIBCO BRL Cat. No. 15050-065) and after they were dispersed by adding 10 mL of 10% -FBS-αMEM, the cells were collected by centrifugal separation (25° C., 800 rpm, 5 minutes). A cell suspension containing 40,000 cells/mL was prepared from the collected cells using 10% -FBS-αMEM.
The cell suspension was dispensed to the wells of a 96 well microplate (Falcon company) in an amount of 100 μL per well so as to achieve 4,000 cells/well and cultured for 24 hours. Compounds were dispensed to the wells in final concentrations of 0.01, 0.03, 0.1, 0.3 μg/ml except the following control group. DMSO was dispensed to the wells of the control group in a final concentration of 0.1% (v/v). Alkaline phosphatase (ALP) activity was measured for each group after culturing for four days.
The measurement of ALP activity was performed as follows. That is, after the whole medium was removed from each well of the culturing plate, each well was washed twice by dispensing and removing 100 μL of Dulbecco's phosphate buffer (available from GIBCO BRL Cat. No. 14190-144). Cell lysing solution containing 10 mM MgCl2 and 2%(v/v) TritonX-100 (Sigma company) was prepared and 50 μL/well of the cell lysing solution was dispensed and the mixture was stirred at room temperature for five minutes. An ALP substrate solution containing 50 mM of diethanolamine (Wako Pure Chemical Industries, Ltd. Cat. No. 099-03112) and 20 mM of […] (Wako Pure Chemical Industries, Ltd. Cat. No. 147-02343) was prepared and 50 μL/well of the ALP substrate solution was dispensed and after allowing to stand at room temperature for 10 minutes, absorbance was measured using a microplate reader (Bio-rad company). Alkaline phosphatase activity increase rate (%) in the group blended with test compounds was calculated assuming the observed value of the control group of each plate to be 100% and evaluated as the osteoblast differentiation promoting activity.

| Structure (SMILES) | activity at 0.03 µg/mL [1] | melting point |
| --- | --- | --- |
| NC(=O)c1sc2nccc(N3CCCN(c4cccnc4)CC3)c2c1N [Example 96, 3-amino-4-(4-pyridin-3-yl-1,4-diazepan-1-yl)thieno[2,3-b]pyridine-2-carboxamide] | > 150% |  |
| NC(=O)c1sc2nccc(N3CCCCCCC3)c2c1N [Example 26, 3-amino-4-azocan-1-ylthieno[2,3-b]pyridine-2-carboxamide] |  | 222 to 224 °C |
| Cc1cc(N2CCCN(c3ccnc4sc(C(N)=O)c(N)c34)CC2)ccc1F [Example 69, 3-amino-4-[4-(4-fluoro-3-methylphenyl)-1,4-diazepan-1-yl]thieno[2,3-b]pyridine-2-carboxamide] |  | 194 to 197 °C |
| NC(=O)c1sc2nccc(N3CCC(Cc4ccccc4)CC3)c2c1N [Example 18, 3-amino-4-(4-benzylpiperidin-1-yl)thieno[2,3-b]pyridine-2-carboxamide] |  | 220 to 221 °C |
| COc1ccccc1N1CCCN(c2ccnc3sc(C(N)=O)c(N)c23)CC1 [Example 67, 3-amino-4-[4-(2-methoxyphenyl)-1,4-diazepan-1-yl]thieno[2,3-b]pyridine-2-carboxamide] |  | 179 to 184 °C |
| CCSc1ccnc2sc(C(N)=O)c(N)c12 [Example 114, 3-amino-4-(ethylthio)thieno[2,3-b]pyridine-2-carboxamide] |  | 230 to 235 °C |
| NC(=O)c1sc2nccc(N3CCN(C(c4ccccc4)c4ccccc4)CC3)c2c1N [Example 48, 3-amino-4-(4-benzhydrylpiperazin-1-yl)thieno[2,3-b]pyridine-2-carboxamide] |  | 225 to 233 °C |
| NC(=O)c1sc2nccc(N3CCCC(O)C3)c2c1N (stereo not drawn) [Example 36, 3-amino-4-(3-hydroxypiperidin-1-yl)thieno[2,3-b]pyridine-2-carboxamide] |  | 208 to 211 °C |
| NC(=O)c1sc2nccc(N3CCCN(c4ccc(OCc5ccccc5)cc4)CC3)c2c1N [Example 79, 3-amino-4-{4-[4-(benzyloxy)phenyl]-1,4-diazepan-1-yl}thieno[2,3-b]pyridine-2-carboxamide] |  | 211 to 213 °C |
| CCOc1ccnc2sc(C(N)=O)c(N)c12 [Example 108, 3-amino-4-ethoxythieno[2,3-b]pyridine-2-carboxamide] |  | 241 to 243 °C |
| COc1ccnc2sc(C(N)=O)c(N)c12 [Example 107, 3-amino-4-methoxythieno[2,3-b]pyridine-2-carboxamide] |  | 238 to 241 °C |
| NC(=O)c1sc2nccc(OCc3ccccc3)c2c1N [Example 110, 3-amino-4-(benzyloxy)thieno[2,3-b]pyridine-2-carboxamide] |  | 216 to 221 °C |
| NC(=O)c1sc2nccc(NC3CCCCC3)c2c1N [Example 11, 3-amino-4-(cyclohexylamino)thieno[2,3-b]pyridine-2-carboxamide] |  | 244 to 247 °C |
| NC(=O)c1sc2nccc(N3CCCOCC3)c2c1N [Example 30, 3-amino-4-(1,4-oxazepan-4-yl)thieno[2,3-b]pyridine-2-carboxamide] |  | 175 to 176 °C |
| NC(=O)c1sc2nccc(N3CCCN(c4ccc(Br)cc4)CC3)c2c1N [Example 82, 3-amino-4-[4-(4-bromophenyl)-1,4-diazepan-1-yl]thieno[2,3-b]pyridine-2-carboxamide] |  | 170 to 173 °C |
| NC(=O)c1sc2nccc(N3CCCN(c4cccc(C(F)(F)F)c4)CC3)c2c1N [Example 86, 3-amino-4-{4-[3-(trifluoromethyl)phenyl]-1,4-diazepan-1-yl}thieno[2,3-b]pyridine-2-carboxamide] |  | 195 to 197 °C |
| NC(=O)c1sc2nccc(N3CCCN(c4c(F)c(F)nc(F)c4F)CC3)c2c1N [Example 88, 3-amino-4-[4-(2,3,5,6-tetrafluoropyridin-4-yl)-1,4-diazepan-1-yl]thieno[2,3-b]pyridine-2-carboxamide] |  | 228 to 231 °C |
| NC(=O)c1sc2nccc(N3CCCSCC3)c2c1N [Example 33, 3-amino-4-(1,4-thiazepan-4-yl)thieno[2,3-b]pyridine-2-carboxamide] |  | 171 to 174 °C |

| Structure (SMILES) | activity at 0.03 µg/mL [1] | melting point |
| --- | --- | --- |
| NC(=O)c1sc2nccc(N3CCN(c4ccc(Cl)cc4)CC3)c2c1N [Example 52, 3-amino-4-[4-(4-chlorophenyl)piperazin-1-yl]thieno[2,3-b]pyridine-2-carboxamide] |  | 297 °C (dec.) |
| Cc1cc(N2CCN(c3ccccc3)CC2)c2c(N)c(C(N)=O)sc2n1 [Example 75, 3-amino-6-methyl-4-(4-phenylpiperazin-1-yl)thieno[2,3-b]pyridine-2-carboxamide] |  | 247 to 250 °C |
| NC(=O)c1sc2nccc(N3CCCC(c4ccccc4)C3)c2c1N (stereo not drawn) [Example 35, 3-amino-4-(3-phenylpiperidin-1-yl)thieno[2,3-b]pyridine-2-carboxamide] |  | 267 to 269 °C |
| NC(=O)c1sc2nccc(N3CCCN(c4ccc(Cl)nn4)CC3)c2c1N [Example 105, 3-amino-4-[4-(6-chloropyridazin-3-yl)-1,4-diazepan-1-yl]thieno[2,3-b]pyridine-2-carboxamide] |  | 232 to 234 °C |
| NC(=O)c1sc2nccc(N3CCN(C(=O)c4ccccc4)CC3)c2c1N [Example 51, 3-amino-4-(4-benzoylpiperazin-1-yl)thieno[2,3-b]pyridine-2-carboxamide] |  | > 300 °C |
| NC(=O)c1sc2nccc(NCc3ccccc3)c2c1N [Example 7, 3-amino-4-(benzylamino)thieno[2,3-b]pyridine-2-carboxamide] |  | 260 to 262 °C |
| CC(C)(C)c1ccc(N2CCCN(c3ccnc4sc(C(N)=O)c(N)c34)CC2)cc1 [Example 92, 3-amino-4-[4-(4-tert-butylphenyl)-1,4-diazepan-1-yl]thieno[2,3-b]pyridine-2-carboxamide] |  | 231 to 232 °C |
| NC(=O)c1sc2nccc(SC3CCCCC3)c2c1N [Example 115, 3-amino-4-(cyclohexylthio)thieno[2,3-b]pyridine-2-carboxamide] |  | 195 to 197 °C |
| NC(=O)c1sc2nccc(N3CCCN(c4ccc(OC(F)(F)F)cc4)CC3)c2c1N [Example 87, 3-amino-4-{4-[4-(trifluoromethoxy)phenyl]-1,4-diazepan-1-yl}thieno[2,3-b]pyridine-2-carboxamide] |  | 163 to 165 °C |
| NC(=O)c1sc2nccc(N3CCCN(c4ccc(F)c(Cl)c4)CC3)c2c1N [Example 81, 3-amino-4-[4-(3-chloro-4-fluorophenyl)-1,4-diazepan-1-yl]thieno[2,3-b]pyridine-2-carboxamide] |  | 181 to 184 °C |
| NC(=O)c1sc2nccc(N3CCN(c4ccccc4Cl)CC3)c2c1N [Example 54, 3-amino-4-[4-(2-chlorophenyl)piperazin-1-yl]thieno[2,3-b]pyridine-2-carboxamide] |  | 294 to 298 °C (dec.) |
| Cc1ccc(N2CCCN(c3ccnc4sc(C(N)=O)c(N)c34)CC2)cc1[N+](=O)[O-] [Example 90, 3-amino-4-[4-(4-methyl-3-nitrophenyl)-1,4-diazepan-1-yl]thieno[2,3-b]pyridine-2-carboxamide] |  | 114 to 117 °C |
| CC(C)CNc1ccnc2sc(C(N)=O)c(N)c12 [Example 5, 3-amino-4-(isobutylamino)thieno[2,3-b]pyridine-2-carboxamide] |  | 117 to 119 °C |
| NC(=O)c1sc2nccc(N3CC[C@@H]4CCCC[C@H]4C3)c2c1N (relative stereo) [Example 28, 3-amino-4-(trans-perhydroisoquinolin-2-yl)thieno[2,3-b]pyridine-2-carboxamide] |  | 285 to 288 °C |
| CS(=O)(=O)N1CCCN(c2ccnc3sc(C(N)=O)c(N)c23)CC1 [Example 104, 3-amino-4-[4-(methylsulfonyl)-1,4-diazepan-1-yl]thieno[2,3-b]pyridine-2-carboxamide] |  | 214 to 217 °C |
| Cc1cc(N(C)C)c2c(N)c(C(N)=O)sc2n1 [Example 3, 3-amino-4-(dimethylamino)-6-methylthieno[2,3-b]pyridine-2-carboxamide] |  | 167 to 170 °C |
| CC(C)(C)CNc1ccnc2sc(C(N)=O)c(N)c12 [Example 6, 3-amino-4-(neopentylamino)thieno[2,3-b]pyridine-2-carboxamide] |  | 238 to 240 °C |
| CC1CCN(c2ccnc3sc(C(N)=O)c(N)c23)CC1 [Example 15, 3-amino-4-(4-methylpiperidin-1-yl)thieno[2,3-b]pyridine-2-carboxamide] |  | 252 to 254 °C |
